The source of these data is ChEMBL document CHEMBL5338815 (J Med Chem, 2023).

Series [1] concerns PANC-1. The series is described as follows: In vivo antitumor activity against human PANC-1 cells xenografted in Balb/c mouse model assessed as tumor growth inhibition at 2 mg/kg, ip treated for 22 days relative to control. As to conditions: PANC-1, 528 h, time 22 day, read-out: TGI. Type of series: functional.
The subject of series [2] is MDA-MB-231. The series is described as follows: Reduction in H3K9me2 level in human MDA-MB-231 cells at 10 uM by Western blot analysis. Type of series: functional, cell-based. The settings on record: time 24-96 hrs, TDE = time-dependent effect. On the technique in general: Immunoblotting shows a protein as a band on a membrane.
The target of series [3] is DNA (cytosine-5)-methyltransferase 1 (Homo sapiens, UniProt P26358). The series is described as follows: Inhibition of DNMT1 (unknown origin).
DNA (cytosine-5)-methyltransferase 1, sequence (P26358 whole entry): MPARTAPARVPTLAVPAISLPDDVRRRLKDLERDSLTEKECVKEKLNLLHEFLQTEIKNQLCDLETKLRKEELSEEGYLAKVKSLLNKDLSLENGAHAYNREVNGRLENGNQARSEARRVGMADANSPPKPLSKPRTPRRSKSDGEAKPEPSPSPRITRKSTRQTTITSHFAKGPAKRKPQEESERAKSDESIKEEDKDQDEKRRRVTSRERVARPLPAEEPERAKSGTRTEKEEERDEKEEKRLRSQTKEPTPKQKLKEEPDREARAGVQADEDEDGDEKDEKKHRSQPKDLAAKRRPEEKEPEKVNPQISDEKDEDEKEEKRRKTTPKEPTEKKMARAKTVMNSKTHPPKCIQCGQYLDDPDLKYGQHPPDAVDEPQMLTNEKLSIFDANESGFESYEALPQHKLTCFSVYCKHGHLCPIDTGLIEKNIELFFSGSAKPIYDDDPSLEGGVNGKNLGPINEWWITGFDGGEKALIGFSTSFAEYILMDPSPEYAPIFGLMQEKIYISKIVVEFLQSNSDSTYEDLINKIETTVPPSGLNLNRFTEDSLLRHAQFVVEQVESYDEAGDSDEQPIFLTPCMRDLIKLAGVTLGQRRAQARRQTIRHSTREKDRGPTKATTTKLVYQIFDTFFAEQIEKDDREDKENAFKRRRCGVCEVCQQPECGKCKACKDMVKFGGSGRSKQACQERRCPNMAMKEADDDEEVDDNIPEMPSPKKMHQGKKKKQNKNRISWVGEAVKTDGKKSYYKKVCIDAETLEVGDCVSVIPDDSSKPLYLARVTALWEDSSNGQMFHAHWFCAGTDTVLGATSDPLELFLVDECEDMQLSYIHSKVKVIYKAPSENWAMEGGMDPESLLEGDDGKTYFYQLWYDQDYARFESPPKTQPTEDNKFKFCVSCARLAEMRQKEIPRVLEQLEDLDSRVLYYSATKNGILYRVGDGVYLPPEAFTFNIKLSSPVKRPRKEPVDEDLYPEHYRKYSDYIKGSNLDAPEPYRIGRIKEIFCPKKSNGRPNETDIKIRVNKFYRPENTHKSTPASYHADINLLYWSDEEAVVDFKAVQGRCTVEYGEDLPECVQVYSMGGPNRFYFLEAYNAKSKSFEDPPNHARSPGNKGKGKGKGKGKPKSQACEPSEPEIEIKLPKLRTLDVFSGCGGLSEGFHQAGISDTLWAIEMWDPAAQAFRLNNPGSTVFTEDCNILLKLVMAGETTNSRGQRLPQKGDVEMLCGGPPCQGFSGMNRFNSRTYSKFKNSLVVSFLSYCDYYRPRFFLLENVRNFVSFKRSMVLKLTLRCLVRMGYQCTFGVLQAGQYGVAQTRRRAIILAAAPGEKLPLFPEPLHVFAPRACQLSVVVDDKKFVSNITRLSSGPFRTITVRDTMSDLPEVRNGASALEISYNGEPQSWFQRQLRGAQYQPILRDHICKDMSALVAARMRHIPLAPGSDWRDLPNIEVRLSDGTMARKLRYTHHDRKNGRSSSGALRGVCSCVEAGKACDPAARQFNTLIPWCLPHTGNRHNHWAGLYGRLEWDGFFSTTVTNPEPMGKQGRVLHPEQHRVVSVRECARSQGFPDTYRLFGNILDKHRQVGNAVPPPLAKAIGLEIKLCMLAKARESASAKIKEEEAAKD
Series [4] has as its target Histone-lysine N-methyltransferase EZH2 (Homo sapiens, UniProt Q15910). The series is described as follows: Inhibition of EZH2 (unknown origin).
Series [5] concerns the target Protein arginine N-methyltransferase 5 (Homo sapiens, UniProt O14744). The series is described as follows: Inhibition of PRMT5 (unknown origin).
The subject of series [6] is MDA-MB-231. As to the kind of experiment: Inhibition of colony formation in human MDA-MB-231 cells at […] incubated for 14 days drug medium changed for every 2 days by crystal violet staining based analysis. It is filed as cell-based. As to conditions: dose 2.5 µM, time 14.0 day.
In series [7] the target is T1, Histone-lysine N-methyltransferase EHMT2 (Homo sapiens) (UniProt Q96KQ7).
T1 sequence (whole entry): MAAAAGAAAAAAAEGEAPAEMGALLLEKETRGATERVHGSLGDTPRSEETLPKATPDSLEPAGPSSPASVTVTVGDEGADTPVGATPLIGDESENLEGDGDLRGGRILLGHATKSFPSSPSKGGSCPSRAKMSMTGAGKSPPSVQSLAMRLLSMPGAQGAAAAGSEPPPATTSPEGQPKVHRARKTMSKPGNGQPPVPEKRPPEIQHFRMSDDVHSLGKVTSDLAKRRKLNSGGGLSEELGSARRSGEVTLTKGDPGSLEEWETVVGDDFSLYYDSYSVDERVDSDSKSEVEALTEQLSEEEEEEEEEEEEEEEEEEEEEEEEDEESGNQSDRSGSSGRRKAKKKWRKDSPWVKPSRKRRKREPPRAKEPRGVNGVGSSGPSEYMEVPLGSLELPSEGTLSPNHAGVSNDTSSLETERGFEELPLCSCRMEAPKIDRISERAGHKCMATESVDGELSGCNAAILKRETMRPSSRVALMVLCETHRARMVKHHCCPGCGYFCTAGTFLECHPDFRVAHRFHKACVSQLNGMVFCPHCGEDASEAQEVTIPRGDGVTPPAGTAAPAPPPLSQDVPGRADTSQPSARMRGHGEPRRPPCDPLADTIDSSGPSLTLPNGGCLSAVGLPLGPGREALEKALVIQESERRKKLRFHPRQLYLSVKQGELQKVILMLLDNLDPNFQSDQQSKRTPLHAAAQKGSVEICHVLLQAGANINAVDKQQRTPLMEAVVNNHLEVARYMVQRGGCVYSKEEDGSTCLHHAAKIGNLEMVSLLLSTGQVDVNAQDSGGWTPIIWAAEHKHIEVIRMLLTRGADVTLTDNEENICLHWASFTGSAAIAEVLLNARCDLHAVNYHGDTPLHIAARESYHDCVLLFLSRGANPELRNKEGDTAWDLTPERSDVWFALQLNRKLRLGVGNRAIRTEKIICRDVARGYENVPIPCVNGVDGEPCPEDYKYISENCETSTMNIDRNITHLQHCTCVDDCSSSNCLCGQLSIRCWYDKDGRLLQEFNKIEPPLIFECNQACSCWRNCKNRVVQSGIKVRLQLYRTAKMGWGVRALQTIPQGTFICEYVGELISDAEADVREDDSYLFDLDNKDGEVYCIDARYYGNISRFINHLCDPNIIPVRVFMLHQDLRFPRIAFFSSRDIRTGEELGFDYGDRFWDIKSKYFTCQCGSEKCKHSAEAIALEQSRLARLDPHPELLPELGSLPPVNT
As to the kind of experiment: Binding affinity to G9a in human MDA-MB-231 cells assessed as protein stabilization at 37 to 41.7 degC at 10 uM incubated for 15 hrs in presence of G9a antibody by CETSA. Type of series: cell-based.

In series [8] the test system is PANC-1. As to the kind of experiment: Antiproliferative activity against human PANC-1 cells assessed as cell viability measured after 24 hrs by CCK-8 assay. Type of series: functional, cell-based. The settings on record: PANC-1, 24 h. On the technique in general: Tetrazolium assays rely on reduction of a dye to a coloured formazan, in cell work by metabolically active cells.

Series [9] concerns MDA-MB-231. The series is described as follows: Reduction in H3K9me2 level in human MDA-MB-231 cells at 10 uM incubated for 48 hrs followed replaced with fresh medium measured after 48 hrs by Western blot analysis. It is filed as functional, cell-based.
Series [10] can be described thus: AUC (0 to t) in ICR mouse at 2 mg/kg, ip measured upto 24 hrs by LC-MS/MS analysis. It is filed as ADME, organism-based. On the set-up: dose 2 mg/kg, time < 24 hrs, route ip. As to conditions: in vivo.

One may read the IC50 as the concentration that gives 50% inhibition. The term AUC(0-t) denotes exposure summed from dosing to a finite time, without extrapolation to infinity.

Active and inactive are the calls of the source. The rule behind the calls is not given here.

Protein arginine N-methyltransferase 5, sequence (O14744 whole entry): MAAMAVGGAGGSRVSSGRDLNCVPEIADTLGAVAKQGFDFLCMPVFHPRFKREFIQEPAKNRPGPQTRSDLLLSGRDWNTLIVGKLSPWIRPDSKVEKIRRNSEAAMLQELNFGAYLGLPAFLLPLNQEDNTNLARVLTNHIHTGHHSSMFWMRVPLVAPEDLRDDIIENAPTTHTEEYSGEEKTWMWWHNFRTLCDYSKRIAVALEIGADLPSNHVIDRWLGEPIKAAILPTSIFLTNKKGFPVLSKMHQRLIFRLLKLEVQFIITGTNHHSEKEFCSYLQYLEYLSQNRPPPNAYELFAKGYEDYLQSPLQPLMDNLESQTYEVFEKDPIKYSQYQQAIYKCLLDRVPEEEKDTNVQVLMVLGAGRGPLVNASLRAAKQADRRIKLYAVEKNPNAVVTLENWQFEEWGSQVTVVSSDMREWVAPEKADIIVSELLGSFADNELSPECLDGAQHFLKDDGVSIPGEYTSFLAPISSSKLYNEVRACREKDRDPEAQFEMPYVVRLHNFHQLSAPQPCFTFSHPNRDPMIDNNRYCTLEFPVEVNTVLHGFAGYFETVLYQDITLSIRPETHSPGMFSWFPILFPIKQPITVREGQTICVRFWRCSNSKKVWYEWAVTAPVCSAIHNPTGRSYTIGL
Histone-lysine N-methyltransferase EZH2, sequence (Q15910 whole entry): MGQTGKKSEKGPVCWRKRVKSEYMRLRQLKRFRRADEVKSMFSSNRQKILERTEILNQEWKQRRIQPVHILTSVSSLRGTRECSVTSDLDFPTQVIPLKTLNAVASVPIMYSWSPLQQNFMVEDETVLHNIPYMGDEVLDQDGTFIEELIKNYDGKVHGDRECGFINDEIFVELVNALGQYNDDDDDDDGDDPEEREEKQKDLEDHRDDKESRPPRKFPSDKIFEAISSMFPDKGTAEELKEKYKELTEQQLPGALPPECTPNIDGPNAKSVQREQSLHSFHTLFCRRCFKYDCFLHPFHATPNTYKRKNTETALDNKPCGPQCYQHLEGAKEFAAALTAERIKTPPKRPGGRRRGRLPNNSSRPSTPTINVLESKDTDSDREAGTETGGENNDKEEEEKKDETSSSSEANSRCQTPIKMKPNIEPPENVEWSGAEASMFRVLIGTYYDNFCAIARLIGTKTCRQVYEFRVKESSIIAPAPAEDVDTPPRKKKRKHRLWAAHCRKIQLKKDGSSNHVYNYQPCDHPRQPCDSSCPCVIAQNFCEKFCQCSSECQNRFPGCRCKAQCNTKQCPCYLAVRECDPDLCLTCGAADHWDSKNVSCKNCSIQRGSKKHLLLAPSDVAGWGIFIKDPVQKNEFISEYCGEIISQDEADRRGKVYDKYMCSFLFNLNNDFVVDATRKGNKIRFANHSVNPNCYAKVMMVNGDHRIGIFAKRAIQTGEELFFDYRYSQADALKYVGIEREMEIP

Turning to `C=CC(=O)N(C)c1nc(NC2CCN(C)CC2)c2cc(OC)c(OCCCN3CCCC3)cc2n1`, in the series with PANC-1 [1], the inhibition in vivo at 2 mg/kg came to 52.2%. Besides, the inhibition entry with MDA-MB-231 [2] was “Tde”. Besides, the IC50 in [3] was more than 20 µM; in [4] it was more than 20 µM; in [5], more than 20 µM; in the series with PANC-1 [8], 2.68 µM. In addition, the inhibition entry in the series with MDA-MB-231 [6] is “Active”. Besides, in series [7], the result was Active. Besides, the inhibition entry in the series with MDA-MB-231 [9] is “inactive”. The molecule also came in with an AUC(0-t) at 24 h in [10] of 208 ng·h/mL.
